Test results as given in paper PMC11707430, “Novel antibiotics against Staphylococcus aureus without detectable resistance by targeting proton motive force and FtsH” (MedComm, 2025).
In brackets after ≈: the same amount, converted by molar mass. Read-outs that look alike come from different tables or passages of the source.

Experiments:
S. aureus [1] = assay: MIC determination by microbroth dilution; format: cell-based, Staphylococcus aureus; conditions: Staphylococcus aureus; structure-activity relationship of C218-0546 analogs (Figure S1); read-out: MIC
Experimental: Minimal inhibitory concentration (MIC) determination. The detection of MIC was performed by the microbroth dilution method with reference to the previously report by Wang et al^2. Briefly, the fresh bacterial suspension was adjusted to a McF standard equivalent of 0.5 (~1.5 × 10^8 CFU/mL) and then 100-fold diluted with MH broth. Fifty microliters of bacterial suspension with equal volume of serially diluted compounds (1-128 µg/mL) were added into a 96-well cell plate (Corning Costar, the United States) and incubated at 37°C for 16-18 h. The bacterial suspension without compounds was used as a negative control. The lowest concentration that inhibited visible bacterial growth was considered as the value of MIC.

HSF = assay: Cytotoxicity by CCK-8; format: cell-based, human
Experimental: Cytotoxicity assessment by Cell Counting Kit-8 (CCK-8). The CCK-8 (DojinDo, Japan) was used to detect the cytotoxicity of compounds on human cell lines (LO2, HepG2, and HSF). Briefly, log phased cells were diluted with its optimal medium to ~4000 cells/well in a 96-well plate. After incubation at 37 ℃ with 5% CO2 for 24h, the unadhered cells were removed by PBS washing, and serially diluted compounds were added to each well for 24h incubation at 37 ℃ with 5% CO2. Then, 10 µL of CCK-8 was added to each well and the absorbance at 450 nm (A450nm) was recorded after 3 h of incubation^17.

S. aureus biofilm = assay: Biofilm determination by XTT assay; format: cell-based
Experimental: Biofilm determination by XTT assay. To determine the biofilm inhibition, overnight cultures of S. aureus were diluted with TSB containing 2-fold diluted antimicrobials at the ratio of 1: 100 and added to a 96-well plate. After incubation statically at 37 ℃ for 24h, the supernatant was carefully removed and washed with PBS. (2,3-Bis-(2-methoxy-4-nitro-5-sulfophenyl)-2H-tetrazolium-5-carboxanilide) (XTT, 0.2 mg/ml) and Phenazin (methylsufate) (PMS, 0.02 mg/ml) were mixed with 1× PBS and added to each well of the 96-well plate (100 μL/well). The plate was then incubated for 3h in the dark, and the absorbance was measured at 490 nm (A490nm). For biofilm eradication, overnight cultures of S. aureus were diluted with fresh TSB at 1:100 and incubated for 24h to pre-form biofilms. Subsequently, the supernatant was removed and washed with PBS, and 200 μL of TSB in the presence of 2-fold diluted antimicrobials was added to each well. After incubation at 37 ℃ for 24h, the supernatant was removed and stained with XTT as described above^7.

S. aureus [2] = assay: Drug combination by checkerboard dilution assay; format: cell-based; conditions: STK848198 with SM, TOB, AMP, fosfomycin, SIS, gentamycin
Experimental: Drug combination assay. The potential combinational antimicrobial effects between individual drugs were determined by checkerboard dilution assay. Briefly, overnight cultured S. aureus was diluted in MH broth to ~1× 10^6 CFU/mL. Compounds were two-fold diluted by MH broth, then 50 μL of each compound were added to each well vertically and horizontally, respectively, in a 96-well cell culture plate. […] The fractional inhibitory concentration index (FICI) was calculated as (MICA in combination/MICA alone) + (MICB in combination/MICB alone)^20.

[3] = Pharmacokinetics determination; format: in vivo; design: bioavailability / Vd / clearance / AUC(0-t) / AUC(0-inf) / MRT last / MRT inf: dose or concentration left out as unconfirmed; conditions: female, ICR, mouse, plasma, mice; for MRT last: read-out: MRT(0-t); for MRT inf: read-out: MRT(0-∞)
Experimental: Pharmacokinetics determination. […] Blood samples were extracted from the jugular vein at intervals of 0.083, 0.25, 0.5, 1, 2, 4, 8, and 24h post-treatment, respectively. The plasma was separated following centrifugation at 6800 × g for 6 min. Concentrations of these compounds in the plasma were quantified by using the LC-MS/MS-04 instrument (TQ4000, JEOL, Japan), and pharmacokinetic parameters were calculated by using Phoenix WinNonlin 7.0 software (Certara, Princeton, NJ, USA)^37.

S. aureus [4] = assay: Peritonitis-sepsis model; format: in vivo, ICR mice; conditions: i.p., 24 h postinfection
Experimental: Peritonitis-sepsis model. Six to seven-week-old female ICR mice were included. […] Mice were injected with 500 μL of the suspension in the presence of 5% mucin by i.p.. An hour post-infection, the mice were administered with: 1) EL+ethanol, 2) […]-0546 (30 mg/kg), and 3) STK848198 (30 mg/kg) alone or in combination with ampicillin (AMP, 25 mg/kg)^38 or amikacin (AMK, 25 mg/kg).

Cc1nc2c(-c3ccc(Cl)cc3)cnn2c(O)c1Cc1ccccc1 [STK848198]
MIC (S. aureus [1]): 2 µg/mL (≈ 5.72 µM)
cytotoxicity (HSF): no toxicity
concentration inhibiting biofilm viability (S. aureus biofilm; biofilm inhibition): 0.125 µg/mL
concentration reducing preformed biofilm viability (S. aureus biofilm; preformed biofilm): 0.5 µg/mL
FICI (S. aureus [2]): ≤ 0.5
AUC(0-inf) ([3]; ip): 38300 ± 7020 ng·h/mL
AUC(0-t) ([3]; ip): 38300 ± 7020 ng·h/mL
Cmax ([3]; ip): 39000 ± 5470 ng/mL
bioavailability ([3]; ip): 87%
MRT last ([3]; ip, i.p.): 1.02 ± 0.16 h
MRT inf ([3]; ip, i.p.): 1.17 ± 0.21 h
half-life ([3]; ip, i.p., read-out: T1/2 (converted)): 3.15 ± 2.38 h
Tmax ([3]; ip, i.p., read-out: Tmax): 0.33 ± 0.14 h
AUC(0-inf) ([3]; iv): 22400 ± 1990 ng·h/mL
AUC(0-t) ([3]; iv): 22000 ± 1960 ng·h/mL
C0 ([3]; iv): 51900 ± 1010 ng/mL
Cmax ([3]; iv): 40100 ± 2180 ng/mL
clearance ([3]; iv): 7.48 ± 0.69 mL/min/kg
MRT last ([3]; iv, i.v.): 0.67 ± 0.1 h
MRT inf ([3]; iv, i.v.): 0.86 ± 0.05 h
half-life ([3]; iv, i.v., read-out: T1/2 (converted)): 2.54 ± 0.7 h
Tmax ([3]; iv, i.v., read-out: Tmax): 0.08 h
Vd ([3]; iv, i.v., read-out: Vss): 0.38 ± 0.02 L/kg
Vd ([3]; iv, i.v., read-out: Vz): 1.66 ± 0.57 L/kg
Tmax ([3]; other: range over s.c., i.v., i.p. and p.o., 30 mg/kg, all the administration routes, read-out: T max (range)): 0.08 to 0.33 h
half-life ([3]; other: range over s.c., i.v., i.p. and p.o., 30 mg/kg, all the administration routes, read-out: half-life (range)): 2.54 to 7.65 h
AUC(0-inf) ([3]; po): 17800 ± 10500 ng·h/mL
AUC(0-t) ([3]; po): 17800 ± 10500 ng·h/mL
Cmax ([3]; po): 18700 ± 3430 ng/mL
bioavailability ([3]; po): 40.4%
MRT last ([3]; po, p.o.): 1.62 ± 0.75 h
MRT inf ([3]; po, p.o.): 2.21 ± 0.79 h
half-life ([3]; po, p.o., read-out: T1/2 (converted)): 3.43 ± 1.53 h
Tmax ([3]; po, p.o., read-out: Tmax): 0.25 h
AUC(0-inf) ([3]; sc): 18000 ± 3640 ng·h/mL
AUC(0-t) ([3]; sc): 18000 ± 3640 ng·h/mL
Cmax ([3]; sc): 11600 ± 6890 ng/mL
bioavailability ([3]; sc): 40.9%
MRT last ([3]; sc, s.c.): 3.5 ± 1.22 h
MRT inf ([3]; sc, s.c.): 5.19 ± 2.09 h
half-life ([3]; sc, s.c., read-out: T1/2 (converted)): 7.65 ± 1.16 h
Tmax ([3]; sc, s.c., read-out: Tmax): 0.33 ± 0.14 h
bacterial loads in liver, spleen, lung, and kidney (S. aureus [4]; STK848198 30 mg/kg combined with AMP 25 mg/kg): significantly reduced the bacterial loads
bacterial loads in organs (S. aureus [4]; single use, vs vehicle): no statistical difference
